In a melting point compilation (Tetko et al.; mined from patent text by program, amines drawn as free bases though some values may be those of a salt):

Row | melting point | SMILES
1 | 85 °C | Cc1ccc2c(c1)C(=O)c1cccn1-2
2 | 125 to 128 °C | COc1ccc(C)cc1NC(=O)Nc1ccc(C2=CCN(C(=O)Nc3ccc(OCC(O)CO)cc3Cl)CC2)cc1 (centres undefined)
3 | 110 to 112 °C | CC(C)CC(=O)c1cn(C)cc(-c2cccc(C(F)(F)F)c2)c1=O
4 | 147 to 150 °C | CN(C)S(=O)(=O)Nc1ccc2[nH]cc(CC#N)c2c1
5 | 159 to 161 °C | COc1ccc(CCNC(=O)CCCCC(=O)NCCc2ccc(OC)c(OC)c2Cl)c(Cl)c1OC
6 | 172 °C | Cc1cc(C)nc(NC(=O)NS(=O)(=O)c2c([N+](=O)[O-])ccc3c2CCC3)n1
7 | 99 to 103 °C | Cc1c(C(=O)C(C)Br)ccn1S(=O)(=O)c1ccccc1 (centres undefined)
8 | 61 to 67 °C | CSCC[C@H](NC(=O)[C@H](CC(C)C)NC(=O)OCc1ccccc1)C(=O)CSC
9 | 235 to 237 °C | CCc1cc(C#N)ccc1Nc1c(N[C@H](C)C(C)(C)C)c(=O)c1=O
10 | 92 to 100 °C | CNC(=O)c1ccccc1Nc1nc(Nc2cc3c(cc2OC)CC(=O)N(CCCN2CCOCC2)CC3)ncc1Cl
11 | 160 to 162 °C | CCCn1cc(C(=O)NCc2ccc(Cl)cc2)c(=O)c2cc(CCl)oc21
12 | 188 °C | CC(C)CCC(=O)N[C@H]1CC[C@H](CCN2CCC(c3cccc4c3CCO4)CC2)CC1
13 | 284 °C | CCCC1=C(C#N)C(c2ccccc2Cl)c2c(n[nH]c2-c2ccc(OC)cc2)N1 (centres undefined)
14 | 258 to 259 °C | Cc1nc2c3c(c(C(=O)N(C)CC(C)O)cc2n1C)CCC1(Cc2ccccc2C1)N3 (centres undefined)
15 | 158 to 184 °C | O=C(Nc1ccc(C(=O)N2Cc3ccccc3Nc3ccccc32)c(Cl)c1)c1ccccc1-c1ccccc1
16 | 108 °C | CCOc1ccc2[nH]c(=O)n(N3CCN(C)CC3)c2c1
17 | 188 to 190 °C | O=C(NCCCn1cnc2cnc3ccccc3c21)c1ccccc1
18 | 67 to 69 °C | CCCCOC(=O)C(=C1SC=CS1)S(=O)(=O)C(C)C
19 | 182 to 183 °C | CC(C)(Cc1ccccc1)C(NC(=O)c1ccc(Cl)cc1)NC(=NC#N)Nc1cccnc1 (centres undefined)
20 | 209 to 211 °C | COC(=O)C(=CNc1ccnc(-c2ccncc2)n1)C(=O)OC
21 | 180 °C | Cc1ccc(C(=O)Nc2cc3c(cc2N)C(C)(C)CCC3(C)C)cc1
22 | 143 to 145 °C | CCC12CCC(=O)C=C1c1c(cc(OC(C)C(=O)OC3COC(C)(C)O3)c(Cl)c1Cl)C2 (centres undefined)
23 | 194 to 196 °C | N#CCNC(=O)C1(NC(=O)c2ccc(Cn3ccnc3)cc2)CCCCC1

Row | melting point | SMILES
24 | 173 to 175 °C | COc1ccc2c(c1)cc(C(=O)O)n2C(C)=O
25 | 190 to 192 °C | CCOC(=O)N(c1ccc(Cl)cc1)c1ccccc1-n1nc(C(=O)O)nc1CCl
26 | 254 to 256 °C | CSC(C(=O)O)c1cc(=O)oc2cc(O)c(O)cc12 (centres undefined)
27 | > 250 °C | CCCOc1cc(C(=O)NC2CC(C)(C)NC(C)(C)C2)ccc1-c1cc2cc(Cl)c(Cl)cc2[nH]1
28 | 97 °C | CCOC(=O)COc1ccc(Oc2nc(Cl)cc3ccccc23)cc1
29 | 196 to 197 °C | CN(C)c1nc2ccccc2nc1/C=C/c1nc(Cl)cc(N2CCCC2)n1
30 | 141 to 143 °C | C=CCc1cc(C(=O)c2ccnn2C)c(Cl)c(Cl)c1O
31 | 55 to 60 °C | O=c1ccc(S(=O)(=O)n2ccnc2)n[nH]1
32 | 90 to 97 °C | COCCOCOc1c(C(C)(C)C)nc(C=NO)nc1C(C)(C)C
33 | 190 to 191 °C | COc1ccc(C(=O)NC2CCCNC(=O)C2)cc1OC (centres undefined)
34 | 203 to 205 °C | CC(=O)Nc1ncc(CCc2ccc(NC(NC(=O)OC(C)(C)C)NC(=O)OC(C)(C)C)cc2)s1
35 | 152 to 153 °C | CN1CCN(c2ccc(C(=O)CCC(=O)N3CCC(c4ccc(Cl)cc4)CC3)cc2)CC1
36 | 154 to 159 °C | O=C(NN1CCNC1=O)Sc1ccccc1
37 | 130 to 132 °C | COC(=O)CCc1cc2cc(C(F)(F)F)ccc2n1S(=O)(=O)c1ccc2ncsc2c1
38 | 256 to 260 °C | CN1CC[C@H](CP(=O)(O)O)C[C@@H]1C(=O)O (relative stereo)
39 | 151 °C | CCC1(c2ccc(Cl)cc2)OCc2c1cnc(CN(C)C)c2O (centres undefined)
40 | 151 to 156 °C | CC(C)C(=O)C(=Cc1cc(O)c(O)c([N+](=O)[O-])c1)c1ccccc1
41 | 200 to 206 °C | CCCN1C(=O)N2C[C@@H](Cc3ccccc3)N=C2c2c1nc(Br)n2Cc1ccccc1
42 | 162 °C | COc1ccc2c(=O)cc(-c3ccc(F)cc3)oc2c1
43 | > 280 °C | COc1cc(-n2cc(C(=O)O)c(=O)c3cc(F)c(F)c(C)c32)ccc1F
44 | 91.2 to 92.6 °C | C=C(c1ccc(Br)cc1)c1ccc(OC)cc1
45 | 67 to 70 °C | CCNc1nc(C(C)(C)C)nn1-c1c(Cl)cc(C(F)(F)F)cc1Cl
46 | 90 to 92 °C | COC(=O)[C@H](CS)NC(=O)[C@@H](O)CO

Row | melting point | SMILES
47 | 176 to 178 °C | CCOC(=O)C(C#N)C(=O)c1nn(-c2ccccc2)c2c1COc1ccccc1-2 (centres undefined)
48 | 241 to 243 °C | O=C1CCC(N2Cc3c(OCc4ccc(C(F)(F)F)cc4)cccc3C2=O)C(=O)N1 (centres undefined)
49 | 153 to 154 °C | COC(C)c1cccc2[nH]c3cnc(C(=O)OC(C)C)c(C)c3c12 (centres undefined)
50 | > 300 °C | O=C1C(=O)c2ccc(Cl)cc2C2=C1SCC1(CCNCC1)O2
51 | 126 to 128 °C | COc1ccc(/C=C/C(=O)C2C(=O)CC(c3ccc(OC)cc3)C([N+](=O)[O-])C2c2ccc(OC)c(OC)c2)cc1 (centres undefined)
52 | 212 °C | CC(C)(C)c1ccc(-c2nc3ccc(C(=O)O)cc3[nH]2)cc1
53 | 198 to 206 °C | CCNC(=O)c1ccc(N2CCN(Cc3cc(Cc4ccccc4)c4c(c3)NC(=O)C(C)O4)CC2)cc1 (centres undefined)
54 | 237 to 239 °C | CCC(NC(C)=O)c1ccc(Cl)c2nc3n(c12)CCCN3c1ccc(Cl)cc1Cl (centres undefined)
55 | 73 to 75 °C | CC(=O)Nc1nc(Cl)c2c(ncn2COC(COC(C)C)COC(C)C)n1
56 | 153 to 154 °C | CCOC(=O)C=C(C)C=CC=C(C)C=Cc1c(C)c(CC)c(OC)c(CC)c1C
57 | 152 to 155 °C | Brc1ccc2c(c1)N=C(NCc1cccnc1)c1ccccc1N2
58 | 277 to 281 °C | Nc1cc(-n2cc(C(=O)O)c(=O)c3cc(F)c(F)c(Cl)c32)cnc1Cl
59 | 118 to 127 °C | CC(n1cnc2cc(-c3ccc(F)cc3)sc2c1=O)C(O)(Cn1cncn1)c1ccc(F)cc1F (centres undefined)
60 | 83 to 86 °C | CCN(C(=O)CC(OC)(C(F)(F)F)C(F)(F)F)c1cn(-c2cccnc2)nc1C
61 | 160 °C | NC(=O)NCCNc1ccc(N)cc1Cl
62 | 77 to 80 °C | O=C(OCC(=O)c1ccccc1[N+](=O)[O-])c1ccccc1
63 | 190 to 193 °C | O=S(Cc1ccccc1)c1nc2cnccc2[nH]1 (centres undefined)
64 | 274 °C | Clc1cc(Cl)cc(-c2nc(Cl)c3ccccc3n2)c1
65 | 167 °C | Cc1cccc(NC(=O)NCC(=O)N(c2ccccc2)C(C(=O)OC(C)(C)C)c2ccc(Cl)cc2)c1 (racemic)
66 | 144 to 147 °C | Cc1cc(C(=O)/C=C/C(=O)O)c(C)o1
67 | 139 °C | Cc1cc(C#N)cc(C(=O)Nc2cccc(F)c2)n1

Row | SMILES | melting point
68 | O=C1C=C(NC(=O)C(=O)c2cn(Cc3ccc(Cl)cc3)c3ccc(Cl)cc23)CO1 | 251 to 253 °C
69 | CC(=O)c1c(C)c(NC(=O)CC(C)(C)C)c(C)c2c1OCC2c1ccc(C(C)C)cc1 (centres undefined) | 176 to 177 °C
